Assay results reported in patent US5571892A, “Polypeptide and anti-HIV drug prepared therefrom” (priority 1990, dated 1996).
Values after ≈ are worked out from the molar mass of the structure shown. Where a SMILES comes first, the peptide text is derived from it.

Columns and labels:
[1] = tested on: human immunodeficiency virus (HIV); conditions: for EC 50 (concentration at which cellular affection due to HIV infection is 50% inhibited): HIV-infected MT-4 cells, MOI 0.001, 5 days, MTT method; for Anti-HIV activity SI / Anti-HIV activity EC50: Table 3; for Anti-HIV activity SI: CC50/EC50; for Anti-HIV activity EC50: tested likewise in Example 2, HIV-infected MT-4 cells
Description: HIV-infected MT-4 cells (2.5×10^4 cells/well, multiplicity of infection (MOI): 0.001) immediately after the infection are added together with a test substance with various changes of the concentration to a 96-well microtiter plate. After incubation at […] for 5 days in a CO2 incubator, the number of survivor cells is measured by the MTT method [Pauwels et al.; J. Virol. Methods, 20, 309-321 (1988)]. […] On the other hand, in order to know the cytotoxicity of the test substance on the MT-4 cells, virus-non-infected cells are incubated, likewise as above, together with the test compound with various changes of the concentration. […] Further, the rough ratio of CC 50 to EC 50 (CC 50/EC 50) is expressed as an effective ratio (SI).

MT-4 cells = experiment: Cytotoxicity on virus-non-infected MT-4 cells (MTT method); assay type: cell-based; conditions: for CC 50 (50% cytotoxic concentration): Table 2, virus-non-infected MT-4 cells, 5 days, MTT method
Description: HIV-infected MT-4 cells (2.5×10^4 cells/well, multiplicity of infection (MOI): 0.001) immediately after the infection are added together with a test substance with various changes of the concentration to a 96-well microtiter plate. After incubation at 7° C. for 5 days in a CO2 incubator, the number of survivor cells is measured by the MTT method [Pauwels et al.; J. Virol. […] On the other hand, in order to know the cytotoxicity of the test substance on the MT-4 cells, virus-non-infected cells are incubated, likewise as above, together with the test compound with various changes of the concentration.

Molecule	EC 50 (concentration at which cellular affection due to HIV infection is 50% inhibited) ([1]; Table 2)	SI (effective ratio, CC 50/EC 50) ([1]; Table 2, rough ratio of CC 50 to EC 50)	Anti-HIV activity SI [1]	Anti-HIV activity EC50 [1]	Concentration for antiviral activity relative to Tachyplesin I ([1]; compared with Tachyplesin I, Table 2 data)	Cytotoxicity compared with Tachyplesin I (MT-4 cells; MT-4 cells, Table 2 data)	CC 50 (50% cytotoxic concentration) (MT-4 cells)	CC 50 relative to azidothymidine (times higher) (MT-4 cells; compared with azidothymidine, Table 2 data)
CC[C@H](C)[C@@H]1NC(=O)CNC(=O)[C@H](CCCNC(=N)N)NC(=O)[C@H](Cc2ccc(O)cc2)NC(=O)[C@@H]2CSSC[C@H](NC1=O)C(=O)N[C@@H](Cc1ccc(O)cc1)C(=O)N[C@@H](CCCNC(=N)N)C(=O)N[C@@H](CCCCN)C(=O)N[C@H](C(=O)N[C@@H](CCCNC(=N)N)C(N)=O)CSSC[C@H](NC(=O)[C@H](Cc1c[nH]c3ccccc13)NC(=O)[C@@H](N)CCCNC(=N)N)C(=O)N[C@@H](Cc1ccc(O)cc1)C(=O)N[C@@H](CCCNC(=N)N)C(=O)N[C@@H](CCCCN)C(=O)N2 [Polypeptide (A)] (HELM PEPTIDE1{R.W.C.Y.R.K.C.Y.R.G.I.C.Y.R.K.C.R.[am]}$PEPTIDE1,PEPTIDE1,3:R3-16:R3|PEPTIDE1,PEPTIDE1,7:R3-12:R3$$$V2.0; N-terminus assumed)	0.35 µg/mL (≈ 0.152 µM)	110	1144	0.039 µg/mL	1/50	somewhat stronger cytotoxicity	39 µg/mL (≈ 16.9 µM)	60 times
[H][C@]12CSSC[C@]([H])(NC(=O)[C@]([H])([C@@H](C)CC)NC(=O)CNC(=O)[C@H](CCCNC(=N)N)NC(=O)[C@H](Cc3ccc(O)cc3)NC1=O)C(=O)N[C@@H](Cc1ccc(O)cc1)C(=O)N[C@@H](CCCNC(=N)N)C(=O)N[C@@H](CCCNC(=N)N)C(=O)N[C@H](C(=O)N[C@@H](CCCNC(=N)N)C(N)=O)CSSC[C@H](NC(=O)[C@H](Cc1c[nH]c3ccccc13)NC(=O)[C@@H](N)CCCCN)C(=O)N[C@@H](Cc1ccccc1)C(=O)N[C@@H](CCCNC(=N)N)C(=O)N[C@@H](C(C)C)C(=O)N2 [Tachyplesin I, reference compound] (HELM PEPTIDE1{K.W.C.F.R.V.C.Y.R.G.I.C.Y.R.R.C.R.[am]}$PEPTIDE1,PEPTIDE1,3:R3-16:R3|PEPTIDE1,PEPTIDE1,7:R3-12:R3$$$V2.0; N-terminus and C-terminus assumed; bridges inferred)	18.1 µg/mL (≈ 8 µM)						49 µg/mL (≈ 21.6 µM)	
(1): polypeptide of the invention, SEQ ID NO: 2, shown only as drawing (WCYRKCYRGICYRKCR)			30	6.9 µg/mL				
